Patent US6406679B1, “Use of HL-60-related lectins in drug delivery and detection of lectin-expressing cells” (Incyte Pharmaceuticals, Inc., priority 1992, dated 2002)
Where “and” joins values, the source holds several entries; their conditions need not be identical. Equal values may be shown once.

How the values were obtained:
BALB/c mice = test: B-cell repertoire: hybridoma clones producing antibodies against the immunizing antigen; type: in vivo, mouse; conditions: for Number of Clones Producing Antibodies: 180 primary clones; for Experimental % of Control: clones with lectin vs antigen only
Experimental: The effect of the recombinant lectin on B-cell activation in BALB/c mice was also assayed using standard assays determining the number of hybridomas secreting antibodies to the administered antigen.
Three BALB/c female mice (7-8 weeks old) were injected intraperitoneally with 5 μg of […], tetanus toxoid or pneumococcal polysaccharide, respectively, in complete Freund's adjuvant. Two weeks later, the mice were injected intravenously with the same amount of antigen in 0.15 M sodium phosphate buffer, pH 7.4. […]. A mixture of capsular polysaccharide extracts from 23 different serotypes of Streptococcus pneumoniae (Pneumovax®) was obtained from Merck Sharp & Dohme, Inc. (West Point, Pa.). Three other mice of the same strain were similarly immunized with these antigens in combination with 15 μg of the recombinant lectin; controls received only the antigens.
The animals were sacrificed 4 days after the booster injection and spleen cells (10^8 cells) were fused with the nonsecreting B-lymphocytoma cell line SP2-OAg14 (2×10^7 cells). The cell mixture was distributed in 6×96 Costar tray wells (2×10^5 cells/well) with a feeder layer of mouse peritoneal macrophages (5×10^5 cells/well). From the third day in culture HAT (hypoxanthine-aminopterin-thymidine) medium was added. After 10-14 days, supernatants were assayed for binding to the respective antigens used for immunization using an enzyme-linked immunosorbent assay (ELISA).

T-cell lines = test: Selection of GPBP-specific T-cell lines from draining lymph nodes; type: in vivo, rat; conditions: lectin-treated rats
From the text: (§1) In a follow-up experiment, T-cell lines were selected from the draining lymph nodes.

established T-cell lines = test: Lectin added to established T-cell lines; type: cell-based, rat; conditions: lectin added in vitro
From the text: as §1

Lewis rats = test: Rat heart transplantation (Brown Norway into Lewis); type: in vivo; conditions: for Onset of Rejection: d − 3 to d + 9, heart allograft
Experimental: The studies reported here relate to Brown Norway rat tissue transplanted into Lewis rats. This model, a highly histo-incompatible donor/recipient pair, provides a very stringent test with predictive value in human transplantation. Known general immunosuppressive agents show immunosuppressive activity in these models. Several forums of this model are used in the studies reported here.
These studies were performed in the laboratory of Dr. Randy Morris of Stanford University. Whole rat hearts were grafted into host rats which were examined daily thereafter for signs of rejection.
A control group comprised twelve recipients treated daily i.v. only with buffer control. The graft survival times were: 6d (x4), 7d (x7), and 8d, giving a mean survival of […]+/−0.6d (SD). The final day of survival is defined as the day on which the donor heart ceased to contract as assessed by lack of obvious palpitations and as confirmed by direct visualization at laparotomy.
Five recipients were treated with the recombinant lectin. All animals were pretreated with 1 mg/kg i.v. lectin on days −3, −2 and −1. The first two animals were then treated postoperatively with 1 mg/kg/d i.v. with lectin from day 1 until graft rejection. The second three animals were treated in the postoperative period from day 1 until graft rejection with 2 mg/kg/d i.v. of lectin. Graft survivals were 9 and 10d for the first group of rats, and 9, 10 and 11d for the second group. No dramatic increase in survival was seen by doubling the dose of lectin in group two in the postoperative period. Therefore, graft survival times of both groups were combined for statistical analysis. When graft survival was analyzed, lectin treatment produced a mean graft survival of 9.8+/−0.84d (SD), +/−0.38d (SEM) with a 95% confidence limit. Using the one-tailed Mann-Whitney U-test to compare the differences between the graft survival times for the saline and lectin-treated groups, a P value of 0.00096 was obtained.

BALB/c and C57B/6 mice = test: Experimental autoimmune myasthenia gravis (EAMG): clinical signs of neuromuscular dysfunction; type: in vivo, mouse
From the text: Experimental autoimmune myasthenia gravis (EAMG) is an antibody-mediated autoimmune disease responding to acetylcholine receptors (AChR). This condition in mice is a recognized model for studying the effects of the autoimmune response on neuromuscular transmission (Levi, G. et al., Eur. J. Immunol. (1983) 13:500-507; Lefvert, A. K. et al., Scand. J. Immunol. (1978) 8:525; Lefvert, A. K. et al., J. Neuro. Immunol. (1985) 9:41; Lefvert, A. K. et al., Eur. J. Immunol. (1982) 12:790). It appears that myasthenia gravis is mediated by T helper cells, which produce acetylcholine receptor antibodies. The disease is induced in mice by injection of acetylcholine receptor. The acetylcholine receptor is obtained from the electric organ of the ray Torpedo marmorata and purified by affinity chromatography on Naja naja siamensis neurotoxin crosslinked to Sephadex.
Young adult female BALB/c and C57B/6 mice (2-4 months of age) were used because they differ in EAMG susceptibility. The mice were injected subcutaneously with 10 μg of purified acetylcholine receptor, in Freund's complete adjuvant without and with the 14 kD-β-gal lectin.
Blood was obtained after 3 days and after 1, 2, 3 and 4 weeks. To follow the development of the disease, the mice were observed daily for signs of neuromuscular dysfunction and after 10 days subjected to forced exercise using repetitive grasping, swimming and inverted hang. These exercises were repeated after warming under a heat lamp at 35° C. for 5 min.

[1] = test system: T-cell lines MOLT4 and ARR on thymic epithelial cells; test: Binding of cultured T-cells to thymic epithelial cells (DPM); type: cell-based, human; conditions: lectin-treated T-cells with terminal galactose residues, FIG. 4
Experimental: The effects of the lectin on the binding of cultured T-cells to thymic epithelial cells were further tested according to the protocol of Singer et al., (Proc. Natl. Acad. Sci. (1986) 83:6588-92). T-cell lines MOLT4 and ARR (a T-cell line with sialic-acid-terminating glycoproteins) were incubated with tritiated thymidine. Next, the cells were treated with neuraminidase (which cleaves terminal sialic acids from the glycoproteins on ARR cells and leaves terminal galactose), galactosidase, endolactosaminidase or no enzyme. After this step, they cells were incubated with and without lectin. All the treatment and control groups of T-cells were layered over thymic epithelial cells, incubated and washed as described in Singer et al. Lastly, the amount of bound T-cells was quantitated by […] per minute (DPM).

Question: How did the “Number of Clones Producing Antibodies” value (BALB/c mice; Pneumococcal polysaccharide + 15 μg lectin) turn out when “Lectin: Soluble 14 kD β-galactoside-binding HL-60/placenta lectin of FIG. 1 (SEQ ID NO:2), prepared recombinantly in E. coli” was run?
Answer: 111

Question: And the “Experimental % of Control” value (BALB/c mice; Pneumococcal polysaccharide)?
Answer: 78%

Question: What about the “Number of Clones Producing Antibodies” value (BALB/c mice; Tetanus toxoid + 15 μg lectin) of the same substance?
Answer: 79

Question: And the “Experimental % of Control” value (BALB/c mice; Tetanus toxoid)?
Answer: 48%

Question: What about the “Number of Clones Producing Antibodies” value (BALB/c mice; Torpedo receptor + 15 μg lectin) of the same substance?
Answer: 54

Question: And the “Experimental % of Control” value (BALB/c mice; Torpedo receptor)?
Answer: 41%

Question: And the “GPBP-specific T-cell lines from draining lymph nodes” value (T-cell lines)?
Answer: no lines could be established

Question: What about the “effect on established T-cell lines” value (established T-cell lines) of the same substance?
Answer: no inhibitory effect

Question: And the “Graft survival, individual animals” value (Lewis rats; 1 mg/kg i.v. days −3 to −1, then 1 mg/kg/d i.v. until rejection)?
Answer: 9 days and 10 days

Question: What about the “Graft survival, individual animals” value (Lewis rats; 1 mg/kg i.v. days −3 to −1, then 2 mg/kg/d i.v. until rejection) of the same substance?
Answer: 9 days and 10 days and 11 days

Question: What about the “Onset of Rejection” value (Lewis rats; 1 mg/kg) of the same substance?
Answer: 9.8 ± .8 days

Question: And the “Onset of Rejection” value (Lewis rats; 2 mg/kg)?
Answer: 9.8 ± .8 days

Question: What about the “toxicity as might be manifested by weight loss” value (Lewis rats; 1-2 mg/kg/d i.v.) of the same substance?
Answer: no noticeable toxicity

Question: And the “mean graft survival (SD)” value (Lewis rats; both lectin dose groups combined, five recipients)?
Answer: 9.8 ± 0.84 days

Question: And the “Mice Showing Clinical Signs of Neuromuscular Dysfunction (%)” value (“Mice Showing Clinical Signs … (%)” below) (BALB/c and C57B/6 mice; BALB/c, Receptor + 2.5 μg Lectin s.c.)?
Answer: 18%

Question: And the “Mice Showing Clinical Signs … (%)” value (BALB/c and C57B/6 mice; BALB/c, Receptor + 12 μg Lectin s.c.)?
Answer: 4%

Question: What about the “Mice Showing Clinical Signs … (%)” value (BALB/c and C57B/6 mice; C57B/6, Receptor + 2.5 μg Lectin s.c.) of the same substance?
Answer: 59%

Question: What about the “Mice Showing Clinical Signs … (%)” value (BALB/c and C57B/6 mice; C57B/6, Receptor + 12 μg Lectin s.c.) of the same substance?
Answer: 11%

Question: What about the neuromuscular deterioration (BALB/c and C57B/6 mice; both strains, higher lectin dose levels) of the same substance?
Answer: markedly slowed

Question: What about the “Binding of T-cells to thymic epithelial cells” value [1] of the same substance?
Answer: appreciably bound
